We go through one compound from publication PMC5478727, “A Novel Small Molecule GDNF Receptor RET Agonist, BT13, Promotes Neurite Growth from Sensory Neurons in Vitro and Attenuates Experimental Neuropathy in the Rat” (Frontiers in Pharmacology, 2017).

Broadly, the IC50 is the concentration needed to halve the response being measured. In general, EC50 refers to the concentration giving half of the maximal effect.

Where only a bound is given, the exact number is not on record here.

For data set [1], the system named is adrenergic receptor alpha 2. As to the kind of experiment: CEREP Alpha 2 (non-selective; antagonist radioligand). Particulars: BT13 1 μM; Cat. No. 0011; average of duplicate. The class given is binding.
Data set [2] concerns the target Ca2+ channel (L, diltiazem site) (Rattus norvegicus, UniProt P22002). As to the kind of experiment: CEREP Ca2+ channel (L, diltiazem site) (benzothiazepines) (antagonist radioligand). The class given is binding. Particulars: BT13 1 μM; Cat. No. 0162; average of duplicate; read-out: Percentage of inhibition/potentiation from control.
The next data set addresses opioid receptor mu (MOP) (Homo sapiens, UniProt P35372). As to the kind of experiment: CEREP Mu (MOP) (h) (agonist radioligand). The class given is binding. Particulars: BT13 1 μM; Cat. No. 0118; average of duplicate; read-out: Percentage of inhibition/potentiation from control.
A further data set has as its target neurokinin receptor NK2 (Homo sapiens, UniProt P21452). As to the kind of experiment: CEREP NK2 (h) (agonist radioligand). The settings on record: read-out: Percentage of inhibition/potentiation from control. The class given is binding.
Data set [3] deals with T1, GDNF receptor complexes (cells overexpressing GFRα1/RET) (Homo sapiens, UniProt P07949).
T1 construct: full-length human RET (long isoform) in pCR3.1; expressed in transfected cells
T1 sequence (P07949 29-1114, one chain of several): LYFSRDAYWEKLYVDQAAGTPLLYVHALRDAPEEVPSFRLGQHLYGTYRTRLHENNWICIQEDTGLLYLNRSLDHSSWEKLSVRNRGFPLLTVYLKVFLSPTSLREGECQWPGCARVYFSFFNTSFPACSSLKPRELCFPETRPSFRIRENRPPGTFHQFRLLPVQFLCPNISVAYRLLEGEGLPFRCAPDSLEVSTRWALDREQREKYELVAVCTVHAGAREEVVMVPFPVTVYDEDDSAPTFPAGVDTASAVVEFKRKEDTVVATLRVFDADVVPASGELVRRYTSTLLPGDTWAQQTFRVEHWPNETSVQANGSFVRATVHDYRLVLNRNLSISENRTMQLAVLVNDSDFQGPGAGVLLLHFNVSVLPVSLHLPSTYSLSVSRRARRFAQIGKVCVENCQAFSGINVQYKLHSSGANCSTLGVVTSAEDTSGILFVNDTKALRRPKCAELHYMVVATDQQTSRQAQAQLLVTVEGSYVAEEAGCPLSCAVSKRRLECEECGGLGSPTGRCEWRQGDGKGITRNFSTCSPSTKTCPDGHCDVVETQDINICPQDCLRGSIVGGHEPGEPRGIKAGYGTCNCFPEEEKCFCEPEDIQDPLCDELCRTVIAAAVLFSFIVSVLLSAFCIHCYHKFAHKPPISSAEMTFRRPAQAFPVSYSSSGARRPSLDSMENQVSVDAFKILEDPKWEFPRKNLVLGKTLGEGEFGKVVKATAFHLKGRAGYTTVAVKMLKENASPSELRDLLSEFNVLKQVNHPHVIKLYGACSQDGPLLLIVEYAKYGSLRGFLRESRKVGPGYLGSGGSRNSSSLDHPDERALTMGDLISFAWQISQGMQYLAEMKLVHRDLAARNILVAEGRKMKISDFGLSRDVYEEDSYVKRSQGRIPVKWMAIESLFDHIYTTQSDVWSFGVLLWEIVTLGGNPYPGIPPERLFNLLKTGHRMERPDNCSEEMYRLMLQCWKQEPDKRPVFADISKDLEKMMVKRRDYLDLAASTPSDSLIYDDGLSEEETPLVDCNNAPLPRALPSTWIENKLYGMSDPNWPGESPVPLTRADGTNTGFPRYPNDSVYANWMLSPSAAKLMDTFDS
As to the kind of experiment: Displacement of 125I-GDNF. The class given is binding. The settings on record: BT13 50 μM; n = 5. A general note: Displacement assays read how much labelled ligand stays bound in the presence of the test substance.

A further data set has as its target neurokinin receptor NK1 (Homo sapiens, UniProt P25103). As to the kind of experiment: CEREP NK1 (h) (agonist radioligand). The class given is binding. Particulars: BT13 1 μM; Cat. No. 0100; average of duplicate; read-out: Percentage of inhibition/potentiation from control.
The target of data set [4] is T2, serotonin receptor 5-HT2C (Homo sapiens, UniProt P28335).
T2 construct: purchased CEREP (contract assay) 0137, 1003
T2 sequence (P28335 33-458): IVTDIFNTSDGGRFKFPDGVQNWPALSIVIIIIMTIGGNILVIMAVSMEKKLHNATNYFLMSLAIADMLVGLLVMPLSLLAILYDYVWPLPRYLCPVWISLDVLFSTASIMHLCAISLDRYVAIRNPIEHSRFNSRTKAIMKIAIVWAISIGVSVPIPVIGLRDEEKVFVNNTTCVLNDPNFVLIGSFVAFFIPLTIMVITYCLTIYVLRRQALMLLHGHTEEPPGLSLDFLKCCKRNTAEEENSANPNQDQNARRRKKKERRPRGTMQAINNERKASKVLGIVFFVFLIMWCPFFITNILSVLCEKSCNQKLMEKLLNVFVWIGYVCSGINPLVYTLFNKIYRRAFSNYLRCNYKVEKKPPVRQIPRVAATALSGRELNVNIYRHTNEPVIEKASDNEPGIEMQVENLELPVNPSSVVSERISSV
As to the kind of experiment: CEREP 5-HT2C (h) (antagonist radioligand). The class given is binding. Particulars: BT13 1 μM, Cat. No. 0137, average of duplicate, read-out: Percentage of inhibition/potentiation from control.

In another data set the target is T3, CYP2C9 (Homo sapiens, UniProt P11712).
T3 construct: Cyathus Exquirere (contract laboratory)
T3 sequence (P11712 whole entry): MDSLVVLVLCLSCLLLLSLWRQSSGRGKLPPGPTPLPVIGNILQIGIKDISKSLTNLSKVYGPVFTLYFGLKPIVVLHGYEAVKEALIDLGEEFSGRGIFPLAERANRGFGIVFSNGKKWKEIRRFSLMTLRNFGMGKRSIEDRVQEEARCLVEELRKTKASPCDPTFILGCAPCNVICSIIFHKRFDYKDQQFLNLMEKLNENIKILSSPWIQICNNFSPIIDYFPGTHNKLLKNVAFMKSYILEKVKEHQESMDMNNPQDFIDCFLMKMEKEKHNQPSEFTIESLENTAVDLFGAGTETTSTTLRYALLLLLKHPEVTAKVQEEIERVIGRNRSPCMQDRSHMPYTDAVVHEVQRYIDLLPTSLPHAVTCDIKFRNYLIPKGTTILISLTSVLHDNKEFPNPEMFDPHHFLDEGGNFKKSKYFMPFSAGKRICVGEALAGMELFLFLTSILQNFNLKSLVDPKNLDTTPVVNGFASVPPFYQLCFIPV
As to the kind of experiment: CYP inhibition, fluorescent assay. The class given is biochemical. The settings on record: read-out: Inhibition of CYP isoforms (IC50), CYP2C9.

Data set [5] has as its target T4, serotonin receptor 5-HT2A (Homo sapiens, UniProt P28223).
T4 construct: purchased CEREP (contract assay) 0471
As to the kind of experiment: CEREP 5-HT2A (h) (agonist radioligand). The class given is binding. Particulars: BT13 1 μM; Cat. No. 0471; average of duplicate; read-out: Percentage of inhibition/potentiation from control.

For another data set, the target named is adenosine receptor A1 (Homo sapiens, UniProt P30542). As to the kind of experiment: CEREP A1 (h) (antagonist radioligand). The class given is binding. The settings on record: BT13 1 μM; Cat. No. 0002; average of duplicate; read-out: Percentage of inhibition/potentiation from control.
Chain of adenosine receptor A1 (P30542 whole entry): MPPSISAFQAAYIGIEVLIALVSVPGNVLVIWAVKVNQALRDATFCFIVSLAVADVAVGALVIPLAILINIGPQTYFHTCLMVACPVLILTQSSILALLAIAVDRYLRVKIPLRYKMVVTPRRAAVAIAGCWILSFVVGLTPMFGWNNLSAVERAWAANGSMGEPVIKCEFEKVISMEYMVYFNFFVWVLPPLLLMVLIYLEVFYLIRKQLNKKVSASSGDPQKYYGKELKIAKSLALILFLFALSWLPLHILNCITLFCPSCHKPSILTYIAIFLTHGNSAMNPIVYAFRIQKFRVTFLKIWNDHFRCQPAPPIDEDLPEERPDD
Data set [6] concerns the target T5, serotonin receptor 5-HT1D (Rattus norvegicus, UniProt P28565).
T5 construct: purchased CEREP (contract assay) 1974
As to the kind of experiment: CEREP 5-HT1D (agonist radioligand). The class given is binding. The settings on record: BT13 1 μM; Cat. No. 1974; average of duplicate; read-out: Percentage of inhibition/potentiation from control.

For a further data set, the target named is GABA receptor GABAB(1b) (Homo sapiens, UniProt Q9UBS5). As to the kind of experiment: CEREP GABAB(1b) (h) (antagonist radioligand). The class given is binding. Particulars: read-out: Percentage of inhibition/potentiation from control.
The target in the next data set is T6, TrkA (Rattus norvegicus, UniProt P35739).
T6 construct: expressed in transfected cells; host or cells: MG87 murine fibroblasts (MG87TrkA)
T6 sequence (P35739 33-799): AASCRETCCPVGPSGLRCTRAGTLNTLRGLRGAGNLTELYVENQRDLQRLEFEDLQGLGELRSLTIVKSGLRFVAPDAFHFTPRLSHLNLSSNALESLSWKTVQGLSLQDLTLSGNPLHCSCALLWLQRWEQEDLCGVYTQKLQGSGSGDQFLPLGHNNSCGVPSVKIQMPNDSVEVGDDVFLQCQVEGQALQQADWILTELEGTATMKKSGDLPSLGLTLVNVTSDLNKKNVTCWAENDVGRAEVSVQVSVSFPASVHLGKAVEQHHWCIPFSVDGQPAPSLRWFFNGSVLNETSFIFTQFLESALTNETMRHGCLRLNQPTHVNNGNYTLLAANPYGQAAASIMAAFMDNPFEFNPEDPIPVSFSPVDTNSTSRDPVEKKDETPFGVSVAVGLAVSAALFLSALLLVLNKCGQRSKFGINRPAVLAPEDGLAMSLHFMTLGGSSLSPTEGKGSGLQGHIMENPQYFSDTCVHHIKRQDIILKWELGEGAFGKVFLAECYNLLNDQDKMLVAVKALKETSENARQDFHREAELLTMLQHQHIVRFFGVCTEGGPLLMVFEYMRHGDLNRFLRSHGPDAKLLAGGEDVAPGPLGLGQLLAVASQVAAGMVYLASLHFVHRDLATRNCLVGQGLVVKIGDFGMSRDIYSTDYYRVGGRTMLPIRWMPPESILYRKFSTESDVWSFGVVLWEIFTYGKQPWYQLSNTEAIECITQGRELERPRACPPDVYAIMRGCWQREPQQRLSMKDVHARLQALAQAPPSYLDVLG
As to the kind of experiment: Luciferase reporter-gene assay, TrkA reporter cells. The class given is cell-based. Particulars: TrkA reporter cell line. Background: A reporter such as luciferase makes a cellular process visible.

The test system of data set [7] is Akt and Erk phosphorylation (RET downstream targets). As to the kind of experiment: Erk1/2 and Akt phosphorylation assay in MG87RET fibroblasts. The class given is cell-based, murine. Particulars: 25–50 μM; in the presence and absence of GFRα3 co-receptor.
A further data set deals with dopamine transporter (Homo sapiens, UniProt Q01959). As to the kind of experiment: biochemical. The settings on record: read-out: Percentage of inhibition/potentiation from control.
Chain of dopamine transporter (Q01959 whole entry): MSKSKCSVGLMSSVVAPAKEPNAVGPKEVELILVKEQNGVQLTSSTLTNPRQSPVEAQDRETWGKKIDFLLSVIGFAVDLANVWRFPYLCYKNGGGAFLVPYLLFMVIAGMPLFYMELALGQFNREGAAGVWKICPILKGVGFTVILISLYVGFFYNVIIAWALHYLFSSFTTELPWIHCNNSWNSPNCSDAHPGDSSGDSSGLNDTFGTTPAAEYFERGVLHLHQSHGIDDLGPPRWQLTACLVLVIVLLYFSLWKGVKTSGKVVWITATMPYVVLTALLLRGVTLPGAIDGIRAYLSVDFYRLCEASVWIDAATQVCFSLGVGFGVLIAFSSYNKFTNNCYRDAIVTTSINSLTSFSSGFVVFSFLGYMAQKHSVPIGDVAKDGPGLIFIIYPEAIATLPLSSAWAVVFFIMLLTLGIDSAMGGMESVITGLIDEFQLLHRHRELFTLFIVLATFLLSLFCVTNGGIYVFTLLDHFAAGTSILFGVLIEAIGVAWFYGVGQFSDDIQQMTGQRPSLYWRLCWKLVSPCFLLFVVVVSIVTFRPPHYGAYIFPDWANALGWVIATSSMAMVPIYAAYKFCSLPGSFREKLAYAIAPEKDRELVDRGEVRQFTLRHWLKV
A short description of data set [8]: Plasma stability, mouse plasma. Particulars: read-out: Plasma stability (% remaining after 1 h). The class given is in vitro ADME.
The next data set deals with T7, GFRα3/RET (Homo sapiens, UniProt P07949).
T7 construct: full-length human RET (long isoform) in pCR3.1; expressed in transfected cells; host or cells: MG87 murine fibroblasts (MG87RET + PathDetect Elk-1 + GFRα3)
T7 sequence (P07949 29-1114): as the sequence (P07949 29-1114, one chain of several) above
As to the kind of experiment: Luciferase reporter-gene assay (PathDetect Elk-1), GFRα3/RET reporter cells. The class given is cell-based. The settings on record: GFRα3/RET reporter cell line.

A further data set deals with CYP1A2 (Homo sapiens, UniProt P05177). As to the kind of experiment: CYP inhibition, fluorescent assay. The class given is biochemical. The settings on record: read-out: Inhibition of CYP isoforms (IC50), CYP1A2.
The target in another data set is T8, histamine receptor H1 (Homo sapiens, UniProt P35367).
T8 construct: purchased CEREP (contract assay) 0870
T8 sequence (P35367 whole entry): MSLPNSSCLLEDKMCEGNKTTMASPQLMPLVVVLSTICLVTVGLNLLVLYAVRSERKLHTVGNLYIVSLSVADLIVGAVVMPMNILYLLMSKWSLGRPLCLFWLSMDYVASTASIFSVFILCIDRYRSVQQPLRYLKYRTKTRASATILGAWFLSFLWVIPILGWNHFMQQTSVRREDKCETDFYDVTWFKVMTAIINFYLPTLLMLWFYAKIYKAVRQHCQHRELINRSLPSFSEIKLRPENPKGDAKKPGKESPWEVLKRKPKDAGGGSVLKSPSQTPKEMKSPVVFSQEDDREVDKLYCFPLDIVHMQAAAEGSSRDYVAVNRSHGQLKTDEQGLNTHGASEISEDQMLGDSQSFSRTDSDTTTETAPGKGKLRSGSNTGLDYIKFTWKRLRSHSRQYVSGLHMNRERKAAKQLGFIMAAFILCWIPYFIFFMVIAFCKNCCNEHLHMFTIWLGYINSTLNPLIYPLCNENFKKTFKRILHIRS
As to the kind of experiment: CEREP H1 (h) (antagonist radioligand). The class given is binding. Particulars: BT13 1 μM; Cat. No. 0870; average of duplicate; read-out: Percentage of inhibition/potentiation from control.

Data set [9] relates to COMT (catechol-O-methyl transferase). As to the kind of experiment: CEREP COMT (catechol-O-methyl transferase). The class given is biochemical. The settings on record: BT13 1 μM; Cat. No. 0457; average of duplicate.
A further data set concerns the target T9, CYP2D6 (Homo sapiens, UniProt P10635).
T9 construct: Cyathus Exquirere (contract laboratory)
As to the kind of experiment: CYP inhibition, fluorescent assay. The class given is biochemical. The settings on record: read-out: Inhibition of CYP isoforms (IC50), CYP2D6.

Data set [10] addresses T2, serotonin receptor 5-HT2C. As to the kind of experiment: CEREP 5-HT2C (h) (agonist radioligand). The class given is binding. The settings on record: BT13 1 μM, Cat. No. 1003, average of duplicate, read-out: Percentage of inhibition/potentiation from control.

T9 sequence (P10635 whole entry): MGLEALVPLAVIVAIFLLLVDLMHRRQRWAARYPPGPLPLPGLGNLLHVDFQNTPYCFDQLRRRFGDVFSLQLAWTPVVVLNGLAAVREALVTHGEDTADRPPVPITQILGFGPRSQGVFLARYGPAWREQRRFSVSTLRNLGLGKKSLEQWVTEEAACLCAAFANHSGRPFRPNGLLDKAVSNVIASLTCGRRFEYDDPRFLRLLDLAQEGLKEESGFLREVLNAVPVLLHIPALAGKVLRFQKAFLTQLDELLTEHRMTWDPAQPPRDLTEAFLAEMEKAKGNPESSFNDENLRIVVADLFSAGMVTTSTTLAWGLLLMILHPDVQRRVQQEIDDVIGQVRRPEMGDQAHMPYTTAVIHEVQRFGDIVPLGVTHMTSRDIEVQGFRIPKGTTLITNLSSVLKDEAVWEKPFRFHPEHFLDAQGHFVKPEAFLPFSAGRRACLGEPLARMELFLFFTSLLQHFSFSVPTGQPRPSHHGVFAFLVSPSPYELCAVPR
Chain of neurokinin receptor NK2 (P21452 whole entry): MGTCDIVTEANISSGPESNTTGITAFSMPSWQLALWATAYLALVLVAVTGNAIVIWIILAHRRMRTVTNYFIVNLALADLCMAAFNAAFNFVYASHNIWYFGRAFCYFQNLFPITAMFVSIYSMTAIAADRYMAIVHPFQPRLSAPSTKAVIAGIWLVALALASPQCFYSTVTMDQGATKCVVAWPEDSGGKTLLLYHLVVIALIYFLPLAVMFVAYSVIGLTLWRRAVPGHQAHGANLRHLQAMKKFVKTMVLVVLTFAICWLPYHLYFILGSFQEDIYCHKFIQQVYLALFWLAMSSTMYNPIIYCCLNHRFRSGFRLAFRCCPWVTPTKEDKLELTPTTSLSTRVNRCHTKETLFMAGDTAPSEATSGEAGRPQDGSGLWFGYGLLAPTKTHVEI

Take `CCN(CC)S(=O)(=O)c1ccc(OC)c(N2CCN(C(=O)c3ccc(F)cc3C(F)(F)F)CC2)c1` [BT13]: the “Percentage of inhibition/potentiation from control” value is recorded as −6% in [1] and −2% in [9]. The inhibition at 1 µM in data set [2] was 16%; at opioid receptor mu (MOP) it was 1%; on neurokinin receptor NK2, 5%; at neurokinin receptor NK1, -19%; in data set [4], 11%; in data set [5] it was -11%. Also, the inhibition at 1 µM is 5% on adenosine receptor A1; 1% in data set [6]; -2% at GABA receptor GABAB(1b); 6% at dopamine transporter; 5% at histamine receptor H1; 6% in data set [10]. In addition, the “reduction of 125I-GDNF binding” value in [3] is recorded as 25 ± 10.2%. Also, the concentration for half-maximal inhibition (IC50) at CYP2C9, at CYP1A2 and on CYP2D6 was more than 100 µM in each case. At TrkA, the “activation of luciferase reporter” value was “did not activate luciferase”. Also, the “phosphorylation of RET downstream targets Akt and Erk” value in data set [7] was “elicited phosphorylation”. For the same compound, the fraction remaining at 1 h in data set [8] came out at 110 ± 3.1%. Besides, the “efficacy, fold induction of luciferase above baseline” value on GFRα3/RET stood at 8.9 fold. Besides, the EC50 on GFRα3/RET (0.1–50 μM, read-out: EC50, luciferase activation) worked out at 20.5 µM.
